This note sets out measurements from patent US7531482B2, “Thieno-pyrimidine compounds having fungicidal activity” (Dow AgroSciences LLC, priority 2005, dated 2009).

Holding throughout (type): in vivo
One experiment has as its system Colletotricum lagenarium. The experiment can be described thus: Cucumber Anthracnose (COLLLA) whole-plant disease control test. The conditions noted are these: Cucumis sativus, foliar; 200 ppm applied to foliage of cucumber; inoculated one day after treatment; read-out: COLLLA disease control.
In a further experiment the test system is Erysiphe cichoracaerum. The experiment can be described thus: Cucumber Powdery Mildew (ERYSCI) whole-plant disease control test. Conditions: Erysiphe, foliar; 200 ppm applied to foliage of cucumber; inoculated one day after treatment; read-out: ERYSCI disease control.
For a further experiment, the system named is Leptosphaeria nodorum. The experiment can be described thus: Glume Blotch of Wheat (LEPTNO) whole-plant disease control test. The conditions noted are these: Parastagonospora nodorum, foliar; for pest or weed control at 200 ppm: 200 ppm applied to foliage of wheat, inoculated one day after treatment, read-out: LEPTNO disease control; for pest or weed control at 75 ppm: 75 ppm (footnote b), wheat foliage.

The subject of the next experiment is Phytophthora infestans. The experiment can be described thus: whole plant or invertebrate. The conditions noted are these: inoculated one day after treatment; for pest or weed control at 200 ppm: Phytophthora infestans, in Solanum lycopersicum, foliar, read-out: PHYTIN disease control, 200 ppm applied to foliage of tomato.
Experiment [1] deals with Puccinia recondita tritici. The experiment can be described thus: Leaf Rust of Wheat (PUCCRT) whole-plant disease control test. The conditions noted are these: 200 ppm applied to foliage of wheat, inoculated one day after treatment; for pest or weed control at 200 ppm: Puccinia recondita, foliar, read-out: PUCCRT disease control.
The test system of experiment [2] is Magnaporthe grisea=Pyricularia oryzae. The experiment can be described thus: whole plant or invertebrate. The conditions noted are these: for pest or weed control at 200 ppm / pest or weed control at 8.3 ppm: Pyricularia oryzae, foliar; for pest or weed control at 200 ppm: read-out: PYRIOR disease control, 200 ppm applied to foliage of rice; for pest or weed control at 8.3 ppm: read-out: PYRIOR disease control, 8.3 ppm (footnote c), rice foliage.

Experiment [3] has as its system Mycosphaerella graminicola=Septoria tritici. The experiment can be described thus: Speckled Leaf Blotch of Wheat (SEPTTR) whole-plant disease control test. The conditions noted are these: 75 ppm applied to foliage of wheat; for pest or weed control at 75 ppm: Mycosphaerella, foliar, read-out: SEPTTR disease control.
The mark [4] stands for this setting: inoculated one day after treatment.

Take `Clc1csc2ncnc(NCCc3ccc(Oc4ncnc5scc(Cl)c45)cc3)c12` [Compound 108]: the pest or weed control at 200 ppm in the experiment on Colletotricum lagenarium, with Erysiphe cichoracaerum and in the experiment on Leptosphaeria nodorum was 0 to 49% each time. The PHYTIN disease control entry with Phytophthora infestans (200 ppm applied to foliage of tomato) is given as “* (* = 0–49 percent control)”. The PUCCRT disease control result in experiment [1] was “* (* = 0–49 percent control)”. Further, in experiment [2] (200 ppm applied to foliage of rice, inoculated one day after treatment), the PYRIOR disease control result is on record as “** (** = 50–79 percent control)”. In addition, the SEPTTR disease control result in experiment [3] is on record as “** (** = 50–79 percent control)”.
As for `CS(=O)(=O)c1cc(Oc2ccc(CCNc3ncnc4scc(Cl)c34)cc2)ccn1` [Compound 95], the pest or weed control at 200 ppm was in the range of 50 to 79% in the experiment with Colletotricum lagenarium; 0 to 49% in the experiment with Erysiphe cichoracaerum; 80 to 100% in the experiment with Leptosphaeria nodorum; 80 to 100% in the experiment with Phytophthora infestans; 80 to 100% in experiment [1]; 80 to 100% in experiment [2] (setting [4]). In experiment [3], the pest or weed control at 75 ppm was 50 to 79%.
As for `COc1nsc(Oc2ccc(CCNc3ncnc4scc(Cl)c34)cc2)n1` [Compound 122], the pest or weed control at 200 ppm in the experiment with Colletotricum lagenarium lay within 50 to 79%; with Erysiphe cichoracaerum, 80 to 100%; in the experiment with Phytophthora infestans, 50 to 79%; in experiment [1] it was 80 to 100%. In addition, the pest or weed control at 75 ppm in the experiment on Leptosphaeria nodorum is 0 to 49%; in experiment [3], 50 to 79%. Moreover, the pest or weed control at 8.3 ppm in experiment [2] was 80 to 100%.
Take `c1csc(Oc2ccc(CCNc3ncnc4sccc34)cc2)n1` [Compound 49]: the pest or weed control at 200 ppm in the experiment with Colletotricum lagenarium was 50 to 79%; with Erysiphe cichoracaerum it was 80 to 100%; in the experiment on Leptosphaeria nodorum, 50 to 79%; in the experiment on Phytophthora infestans it was 80 to 100%; in experiment [1] it was 80 to 100%; in experiment [2] (setting [4]) it was 80 to 100%. Further, the pest or weed control at 75 ppm in experiment [3] fell in the range of 50 to 79%.
As for `N#Cc1nc(Oc2ccc(CCNc3ncnc4scc(Cl)c34)cc2)ccc1Cl` [Compound 59], the pest or weed control at 200 ppm is 80 to 100% with Colletotricum lagenarium; 50 to 79% with Erysiphe cichoracaerum; 0 to 49% in the experiment with Leptosphaeria nodorum; 0 to 49% in the experiment on Phytophthora infestans; 80 to 100% in experiment [1]; 80 to 100% in experiment [2] (setting [4]). In experiment [3], the pest or weed control at 75 ppm fell in the range of 0 to 49%.
For `Cc1noc2ncnc(Oc3ccc(CCNc4ncnc5scc(Cl)c45)cc3)c12` [Compound 66], the pest or weed control at 200 ppm with Colletotricum lagenarium lay within 0 to 49%; in the experiment with Erysiphe cichoracaerum, 0 to 49%; in the experiment on Leptosphaeria nodorum it was 0 to 49%; in the experiment on Phytophthora infestans, 0 to 49%; in experiment [1] it was 80 to 100%; in experiment [2] (setting [4]), 50 to 79%. In addition, the pest or weed control at 75 ppm in experiment [3] is 50 to 79%.
Take `Clc1csc2ncnc(NCCc3ccc(Oc4ncc(Br)s4)cc3)c12` [Compound 16]: the pest or weed control at 200 ppm lay in the range of 0 to 49% in the experiment on Colletotricum lagenarium; 50 to 79% with Erysiphe cichoracaerum; 0 to 49% in the experiment with Leptosphaeria nodorum; 80 to 100% in the experiment with Phytophthora infestans; 80 to 100% in experiment [1]; 80 to 100% in experiment [2] (setting [4]). Further, the pest or weed control at 75 ppm in experiment [3] lay in the range of 80 to 100%.
Consider `Clc1csc2ncnc(NCCc3ccc(Oc4cccc(C(Cl)(Cl)Cl)n4)cc3)c12` [Compound 77], for which the pest or weed control at 200 ppm in the experiment with Colletotricum lagenarium was 0 to 49%; with Erysiphe cichoracaerum it was 0 to 49%; in the experiment with Leptosphaeria nodorum, 80 to 100%; in the experiment with Phytophthora infestans, 0 to 49%; in experiment [1] it was 80 to 100%; in experiment [2] (setting [4]), 80 to 100%. The pest or weed control at 75 ppm in experiment [3] lay within 0 to 49%.
`COc1cc(C(F)(F)F)cc(Oc2ccc(CC(C)Nc3ncnc4scc(Cl)c34)cc2)n1` (centres unmarked) [Compound 88]: the pest or weed control at 200 ppm with Colletotricum lagenarium was in the range of 50 to 79%; in the experiment with Erysiphe cichoracaerum it was 80 to 100%; with Leptosphaeria nodorum, 0 to 49%; in the experiment on Phytophthora infestans, 0 to 49%; in experiment [1], 80 to 100%; in experiment [2] (setting [4]), 80 to 100%. Besides, the pest or weed control at 75 ppm in experiment [3] lay within 50 to 79%.
For `FC(F)(F)c1ccnc(Oc2ccc(CCNc3ncnc4scc(Cl)c34)cc2)c1` [Compound 12], the pest or weed control at 200 ppm in the experiment on Colletotricum lagenarium was 50 to 79%; in the experiment on Erysiphe cichoracaerum, 80 to 100%; in the experiment with Leptosphaeria nodorum, 80 to 100%; in the experiment with Phytophthora infestans it was 50 to 79%; in experiment [1], 80 to 100%; in experiment [2] (setting [4]) it was 80 to 100%. In addition, in experiment [3], the pest or weed control at 75 ppm was in the range of 50 to 79%.
With `FC(F)(F)c1ccnc(Oc2cccc(CCNc3ncnc4scc(Cl)c34)c2)c1` [Compound 69], the pest or weed control at 200 ppm in the experiment with Colletotricum lagenarium fell in the range of 0 to 49%; in the experiment on Erysiphe cichoracaerum, 50 to 79%; with Leptosphaeria nodorum it was 0 to 49%; in the experiment with Phytophthora infestans, 0 to 49%; in experiment [1], 80 to 100%; in experiment [2] (setting [4]) it was 80 to 100%. The pest or weed control at 75 ppm in experiment [3] fell in the range of 50 to 79%.
In the case of `N#Cc1ccnc(Oc2ccc(CCNc3ncnc4scc(Cl)c34)cc2)n1` [Compound 41], the pest or weed control at 200 ppm with Colletotricum lagenarium lay in the range of 0 to 49%; with Erysiphe cichoracaerum, 50 to 79%; with Leptosphaeria nodorum, 0 to 49%; with Phytophthora infestans it was 80 to 100%; in experiment [1] it was 80 to 100%; in experiment [2] (setting [4]), 80 to 100%. For the same molecule, the pest or weed control at 75 ppm in experiment [3] was 0 to 49%.
As to `FC(F)(F)c1cnc(Oc2ccc(CCNc3ncnc4scc(Cl)c34)cc2)c(Cl)c1` [Compound 64], the pest or weed control at 200 ppm in the experiment with Colletotricum lagenarium lay within 50 to 79%; with Erysiphe cichoracaerum, 80 to 100%; in the experiment on Leptosphaeria nodorum, 0 to 49%; in the experiment with Phytophthora infestans, 0 to 49%; in experiment [1], 80 to 100%; in experiment [2] (setting [4]), 80 to 100%. For the same molecule, the pest or weed control at 75 ppm in experiment [3] was in the range of 80 to 100%.
Consider `N#Cc1ccncc1Oc1ccc(CCNc2ncnc3scc(Cl)c23)cc1` [Compound 74], for which the pest or weed control at 200 ppm in the experiment with Colletotricum lagenarium was in the range of 80 to 100%; with Erysiphe cichoracaerum it was 0 to 49%; in the experiment with Leptosphaeria nodorum it was 80 to 100%; in the experiment with Phytophthora infestans, 50 to 79%; in experiment [1], 80 to 100%; in experiment [2] (setting [4]), 80 to 100%. For the same molecule, the pest or weed control at 75 ppm in experiment [3] was in the range of 50 to 79%.
In the case of `Clc1nccc(Oc2ccc(CCNc3ncnc4scc(Cl)c34)cc2)n1` [Compound 45], the pest or weed control at 200 ppm was in the range of 0 to 49% in the experiment on Colletotricum lagenarium; 0 to 49% with Erysiphe cichoracaerum; 0 to 49% in the experiment on Leptosphaeria nodorum; 0 to 49% in the experiment with Phytophthora infestans; 80 to 100% in experiment [1]; 50 to 79% in experiment [2] (setting [4]). Also, the pest or weed control at 75 ppm in experiment [3] fell in the range of 50 to 79%.
With `FC(F)(F)c1ccc(Oc2ccc(CCNc3ncnc4scc(Cl)c34)cc2)cn1` [Compound 65], the pest or weed control at 200 ppm in the experiment on Colletotricum lagenarium lay in the range of 80 to 100%; in the experiment on Erysiphe cichoracaerum it was 50 to 79%; in the experiment on Leptosphaeria nodorum, 50 to 79%; with Phytophthora infestans, 80 to 100%; in experiment [1] it was 80 to 100%; in experiment [2] (setting [4]), 80 to 100%. Further, the pest or weed control at 75 ppm in experiment [3] was 80 to 100%.
Turning to `CC(Cc1ccc(Oc2c(Cl)cnc(C(F)(F)F)c2Cl)cc1)Nc1ncnc2scc(Cl)c12` (centres unmarked) [Compound 94], the pest or weed control at 200 ppm with Colletotricum lagenarium was in the range of 50 to 79%; with Erysiphe cichoracaerum, 50 to 79%; with Leptosphaeria nodorum it was 0 to 49%; with Phytophthora infestans, 0 to 49%; in experiment [1], 80 to 100%; in experiment [2] (setting [4]), 80 to 100%. For the same molecule, in experiment [3], the pest or weed control at 75 ppm was 0 to 49%.
As for `N#Cc1nccnc1Oc1ccc(CCNc2ncnc3scc(Cl)c23)cc1` [Compound 125], the pest or weed control at 200 ppm in the experiment on Colletotricum lagenarium lay within 0 to 49%; with Erysiphe cichoracaerum it was 50 to 79%; in the experiment with Phytophthora infestans it was 50 to 79%; in experiment [1], 80 to 100%. In addition, the pest or weed control at 75 ppm with Leptosphaeria nodorum is 0 to 49%; in experiment [3], 50 to 79%. In addition, the pest or weed control at 8.3 ppm in experiment [2] was in the range of 80 to 100%.
For `COc1cc(Oc2ccc(CCNc3ncnc4scc(Cl)c34)cc2)c(Br)cn1` [Compound 87], the pest or weed control at 200 ppm lay within 0 to 49% in the experiment with Colletotricum lagenarium; 80 to 100% in the experiment with Erysiphe cichoracaerum; 50 to 79% in the experiment with Leptosphaeria nodorum; 50 to 79% in the experiment with Phytophthora infestans; 80 to 100% in experiment [1]; 80 to 100% in experiment [2] (setting [4]). In addition, the pest or weed control at 75 ppm in experiment [3] lay within 50 to 79%.
In the case of `Clc1ccc(COc2ccc(CCNc3ncnc4scc(Cl)c34)cc2)cn1` [Compound 104], the pest or weed control at 200 ppm with Colletotricum lagenarium lay within 50 to 79%; with Erysiphe cichoracaerum, 0 to 49%; with Leptosphaeria nodorum it was 0 to 49%; with Phytophthora infestans, 0 to 49%; in experiment [1], 80 to 100%; in experiment [2] (setting [4]) it was 80 to 100%. The pest or weed control at 75 ppm in experiment [3] lay in the range of 50 to 79%.
